Experimental data: patent US10167262B2, “Herbicidal substituted 3-arylpyrazoles” (FMC CORPORATION, priority 2014, dated 2019)

Experiments:
Assay type in all cases: in vivo
[1] = test system: large (Lg) crabgrass (Digitaria sanguinalis); test: Test A pre-/postemergence greenhouse herbicide test, visual injury rating 0-100
How it was run: (§1)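 Postemergence treatment targeted seedlings 2 to 10 cm high with one to two leaves, while preemergence treatment was a directed spray onto freshly planted loam/sand soil. Injury was scored visually about 10 days later.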

[2] = test system: giant foxtail (Setaria faberii); test: as above
How it was run: as §1

corn (Zea mays) = test: as above
How it was run: as §1

[3] = test system: barnyardgrass (Echinochloa crus-galli); test: as above
How it was run: as §1

[4] = test system: morningglory (Ipomoea spp.); test: as above
How it was run: as §1

[5] = test system: pigweed (Amaranthus retroflexus); test: as above
How it was run: as §1

[6] = test system: velvetleaf (Abutilon theophrasti); test: as above
How it was run: as §1

[7] = test system: wheat (Triticum aestivum); test: as above
How it was run: as §1

[8] = test system: morningglory (Ipomoea coccinea); test: Test C pre-/postemergence greenhouse test, plant response rating 0-100
How it was run: (§2)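 Plants were treated either at seeding (soil of loam and sand) or as 2–18 cm seedlings in a sphagnum peat mix, using test chemicals in a surfactant-containing non-phytotoxic solvent. Visual assessment relative to controls followed 13–15 days later.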

[9] = test system: galium (catchweed bedstraw, Galium aparine); test: as above
How it was run: as §2

[10] = test system: oilseed rape (Brassica napus); test: as above
How it was run: as §2

kochia (Kochia scoparia) = test: Test C postemergence greenhouse test, plant response rating 0-100; details: for Plant response rating, Kochia: scale 0 to 100
How it was run: (§3)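 Postemergence spray of formulated test chemicals on plants 2 to 18 cm tall (1- to 4-leaf stage) grown in peat/vermiculite medium. Greenhouse hold 13 to 15 days, then visual comparison with untreated controls on a 0-100 scale (0 no effect, 100 complete control); dash means no test result.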

[11] = test system: chickweed (common chickweed, Stellaria media); test: as above; details: for Plant response rating, Chickweed: scale 0 to 100
How it was run: as §3

wild oat (Avena fatua) = test: as above; details: for Plant response rating, Oat, Wild: scale 0 to 100
How it was run: as §3

[12] = Postemergence, 250 g ai/ha, scale 0 to 100
[13] = Postemergence, 500 g ai/ha, scale 0 to 100

O=C(c1cncc(F)c1)c1c[nH]nc1-c1cc(Cl)cc(Cl)c1 [Compound 19]
Plant response rating (0 to 100 scale), Crabgrass, Large ([1]; Postemergence, 1000 g ai/ha): 0 | Plant response rating (0 to 100 scale), Crabgrass, Large ([1]; Preemergence, 1000 g ai/ha): 0 | Plant response rating (0 to 100 scale), Foxtail, Giant ([2]; Postemergence, 1000 g ai/ha): 0 | Plant response rating (0 to 100 scale), Foxtail, Giant ([2]; Preemergence, 1000 g ai/ha): 0 | Plant response rating (0 to 100 scale), Corn (corn (Zea mays); Postemergence, 1000 g ai/ha): 0 | Plant response rating (0 to 100 scale), Corn (corn (Zea mays); Preemergence, 1000 g ai/ha): 0 | Plant response rating (0 to 100 scale), Barnyardgrass ([3]; Postemergence, 1000 g ai/ha): 0 | Plant response rating (0 to 100 scale), Barnyardgrass ([3]; Preemergence, 1000 g ai/ha): 0 | Plant response rating (0 to 100 scale), Morningglory ([4]; Postemergence, 1000 g ai/ha): 0 | Plant response rating (0 to 100 scale), Morningglory ([4]; Preemergence, 1000 g ai/ha): 0 | Plant response rating (0 to 100 scale), Pigweed ([5]; Postemergence, 1000 g ai/ha): 100 | Plant response rating (0 to 100 scale), Pigweed ([5]; Preemergence, 1000 g ai/ha): 100 | Plant response rating (0 to 100 scale), Velvetleaf ([6]; Postemergence, 1000 g ai/ha): 100 | Plant response rating (0 to 100 scale), Velvetleaf ([6]; Preemergence, 1000 g ai/ha): 90 | Plant response rating (0 to 100 scale), Wheat ([7]; Postemergence, 1000 g ai/ha): 0 | Plant response rating (0 to 100 scale), Wheat ([7]; Preemergence, 1000 g ai/ha): 0 | Plant response rating (0 to 100), Morningglory ([8]; Postemergence, 62 g ai/ha): 0 | Plant response rating (0 to 100), Morningglory ([8]; Postemergence, 125 g ai/ha): 0 | Plant response rating, Morningglory [8, 12]: 0 | Plant response rating, Morningglory ([8]; Preemergence, 31 g ai/ha): 0 | Plant response rating, Morningglory ([8]; Preemergence, 62 g ai/ha): 0 | Plant response rating, Morningglory ([8]; Preemergence, 125 g ai/ha): 0 | Plant response rating, Morningglory ([8]; Preemergence, 250 g ai/ha): 10 | Plant response rating (0 to 100), Galium ([9]; Postemergence, 31 g ai/ha): 15 | Plant response rating (0 to 100), Galium ([9]; Postemergence, 62 g ai/ha): 40 | Plant response rating (0 to 100), Galium ([9]; Postemergence, 125 g ai/ha): 40 | Plant response rating, Galium [9, 12]: 45 | Plant response rating, Galium ([9]; Preemergence, 31 g ai/ha): 0 | Plant response rating, Galium ([9]; Preemergence, 62 g ai/ha): 80 | Plant response rating, Galium ([9]; Preemergence, 125 g ai/ha): 95 | Plant response rating, Galium ([9]; Preemergence, 250 g ai/ha): 100 | Plant response rating (0 to 100), Oilseed Rape ([10]; Postemergence, 62 g ai/ha): 0 | Plant response rating (0 to 100), Oilseed Rape ([10]; Postemergence, 125 g ai/ha): 0 | Plant response rating, Oilseed Rape [10, 12]: 5 | Plant response rating, Oilseed Rape ([10]; Preemergence, 31 g ai/ha): 0 | Plant response rating, Oilseed Rape ([10]; Preemergence, 62 g ai/ha): 0 | Plant response rating, Oilseed Rape ([10]; Preemergence, 125 g ai/ha): 80 | Plant response rating, Oilseed Rape ([10]; Preemergence, 250 g ai/ha): 80 | Plant response rating (0 to 100), Kochia (kochia (Kochia scoparia); 62 g ai/ha): 80 | Plant response rating (0 to 100), Kochia (kochia (Kochia scoparia); 125 g ai/ha): 85 | Plant response rating, Kochia (kochia (Kochia scoparia); 250 g ai/ha): 90 | Plant response rating (0 to 100), Chickweed ([11]; 31 g ai/ha): 95 | Plant response rating (0 to 100), Chickweed ([11]; 62 g ai/ha): 80 | Plant response rating (0 to 100), Chickweed ([11]; 125 g ai/ha): 98 | Plant response rating, Chickweed ([11]; 250 g ai/ha): 98 | Plant response rating (0 to 100), Oat, Wild (wild oat (Avena fatua); 62 g ai/ha): 0 | Plant response rating (0 to 100), Oat, Wild (wild oat (Avena fatua); 125 g ai/ha): 0 | Plant response rating, Oat, Wild (wild oat (Avena fatua); 250 g ai/ha): 0

CCOC(OCC)(c1cccs1)c1c[nH]nc1-c1cc(Cl)cc(Cl)c1 [Compound 27]
Plant response rating (0 to 100 scale), Crabgrass, Large ([1]; Postemergence, 125 g ai/ha): 0 | Plant response rating (0 to 100 scale), Crabgrass, Large ([1]; Postemergence, 500 g ai/ha): 0 | Crabgrass, Large plant response rating (0 = no effect, 100 = complete control) ([1]; Preemergence, 125 g ai/ha): 0 | Plant response rating (0 to 100 scale), Crabgrass, Large ([1]; Preemergence, 500 g ai/ha): 0 | Plant response rating (0 to 100 scale), Foxtail, Giant ([2]; Postemergence, 125 g ai/ha): 0 | Plant response rating (0 to 100 scale), Foxtail, Giant ([2]; Postemergence, 500 g ai/ha): 0 | Foxtail, Giant plant response rating (0 = no effect, 100 = complete control) ([2]; Preemergence, 125 g ai/ha): 0 | Plant response rating (0 to 100 scale), Foxtail, Giant ([2]; Preemergence, 500 g ai/ha): 0 | Plant response rating (0 to 100 scale), Corn (corn (Zea mays); Postemergence, 125 g ai/ha): 0 | Plant response rating (0 to 100 scale), Corn (corn (Zea mays); Postemergence, 500 g ai/ha): 0 | Corn plant response rating (0 = no effect, 100 = complete control) (corn (Zea mays); Preemergence, 125 g ai/ha): 0 | Plant response rating (0 to 100 scale), Corn (corn (Zea mays); Preemergence, 500 g ai/ha): 0 | Plant response rating (0 to 100 scale), Barnyardgrass ([3]; Postemergence, 125 g ai/ha): 0 | Plant response rating (0 to 100 scale), Barnyardgrass ([3]; Postemergence, 500 g ai/ha): 0 | Barnyardgrass plant response rating (0 = no effect, 100 = complete control) ([3]; Preemergence, 125 g ai/ha): 0 | Plant response rating (0 to 100 scale), Barnyardgrass ([3]; Preemergence, 500 g ai/ha): 0 | Plant response rating (0 to 100 scale), Morningglory ([4]; Postemergence, 125 g ai/ha): 0 | Plant response rating (0 to 100 scale), Morningglory ([4]; Postemergence, 500 g ai/ha): 0 | Morningglory plant response rating (0 = no effect, 100 = complete control) ([4]; Preemergence, 125 g ai/ha): 0 | Plant response rating (0 to 100 scale), Morningglory ([4]; Preemergence, 500 g ai/ha): 0 | Plant response rating (0 to 100 scale), Pigweed ([5]; Postemergence, 125 g ai/ha): 80 | Plant response rating (0 to 100 scale), Pigweed ([5]; Postemergence, 500 g ai/ha): 100 | Pigweed plant response rating (0 = no effect, 100 = complete control) ([5]; Preemergence, 125 g ai/ha): 100 | Plant response rating (0 to 100 scale), Pigweed ([5]; Preemergence, 500 g ai/ha): 100 | Plant response rating (0 to 100 scale), Velvetleaf ([6]; Postemergence, 125 g ai/ha): 80 | Plant response rating (0 to 100 scale), Velvetleaf ([6]; Postemergence, 500 g ai/ha): 90 | Velvetleaf plant response rating (0 = no effect, 100 = complete control) ([6]; Preemergence, 125 g ai/ha): 80 | Plant response rating (0 to 100 scale), Velvetleaf ([6]; Preemergence, 500 g ai/ha): 80 | Plant response rating (0 to 100 scale), Wheat ([7]; Postemergence, 125 g ai/ha): 0 | Plant response rating (0 to 100 scale), Wheat ([7]; Postemergence, 500 g ai/ha): 0 | Wheat plant response rating (0 = no effect, 100 = complete control) ([7]; Preemergence, 125 g ai/ha): 0 | Plant response rating (0 to 100 scale), Wheat ([7]; Preemergence, 500 g ai/ha): 0 | Plant response rating (0 to 100), Morningglory ([8]; Postemergence, 62 g ai/ha): 0 | Plant response rating (0 to 100), Morningglory ([8]; Postemergence, 125 g ai/ha): 0 | Plant response rating, Morningglory [8, 12]: 0 | Plant response rating, Morningglory [8, 13]: 55 | Plant response rating, Morningglory ([8]; Preemergence, 62 g ai/ha): 0 | Plant response rating, Morningglory ([8]; Preemergence, 125 g ai/ha): 0 | Plant response rating, Morningglory ([8]; Preemergence, 250 g ai/ha): 0 | Plant response rating, Morningglory ([8]; Preemergence, 500 g ai/ha): 0 | Plant response rating (0 to 100), Galium ([9]; Postemergence, 62 g ai/ha): 0 | Plant response rating (0 to 100), Galium ([9]; Postemergence, 125 g ai/ha): 0 | Plant response rating, Galium [9, 12]: 0 | Plant response rating, Galium [9, 13]: 0 | Plant response rating, Galium ([9]; Preemergence, 62 g ai/ha): 0 | Plant response rating, Galium ([9]; Preemergence, 125 g ai/ha): 50 | Plant response rating, Galium ([9]; Preemergence, 250 g ai/ha): 80 | Plant response rating, Galium ([9]; Preemergence, 500 g ai/ha): 30 | Plant response rating (0 to 100), Oilseed Rape ([10]; Postemergence, 62 g ai/ha): 45 | Plant response rating (0 to 100), Oilseed Rape ([10]; Postemergence, 125 g ai/ha): 50 | Plant response rating, Oilseed Rape [10, 12]: 50 | Plant response rating, Oilseed Rape [10, 13]: 45 | Plant response rating, Oilseed Rape ([10]; Preemergence, 62 g ai/ha): 70 | Plant response rating, Oilseed Rape ([10]; Preemergence, 125 g ai/ha): 90 | Plant response rating, Oilseed Rape ([10]; Preemergence, 250 g ai/ha): 85 | Plant response rating, Oilseed Rape ([10]; Preemergence, 500 g ai/ha): 90 | Plant response rating (0 to 100), Kochia (kochia (Kochia scoparia); 62 g ai/ha): 80 | Plant response rating (0 to 100), Kochia (kochia (Kochia scoparia); 125 g ai/ha): 80 | Plant response rating, Kochia (kochia (Kochia scoparia); 250 g ai/ha): 90 | Plant response rating, Kochia (kochia (Kochia scoparia); 500 g ai/ha): 90 | Plant response rating (0 to 100), Chickweed ([11]; 62 g ai/ha): 80 | Plant response rating (0 to 100), Chickweed ([11]; 125 g ai/ha): 85 | Plant response rating, Chickweed ([11]; 250 g ai/ha): 90 | Plant response rating, Chickweed ([11]; 500 g ai/ha): 90 | Plant response rating (0 to 100), Oat, Wild (wild oat (Avena fatua); 62 g ai/ha): 0 | Plant response rating (0 to 100), Oat, Wild (wild oat (Avena fatua); 125 g ai/ha): 0 | Plant response rating, Oat, Wild (wild oat (Avena fatua); 250 g ai/ha): 5 | Plant response rating, Oat, Wild (wild oat (Avena fatua); 500 g ai/ha): 5
